# Starred links: 1 amine or outer side, 2 acyl side, 3 side chain; linkers in the order of their positions; H or OH if unused. Positions of bridges follow the written chain, without caps; N, C: chain ends. Non-standard residues stand in square brackets, D forms with d. Residues, ends and D or L forms follow the SMILES beside them. *: point of attachment. hPhe(3-Cl-4-CF3) = N[C@@H](CCc1ccc(C(F)(F)F)c(Cl)c1)C(=O)O; hPhe(3-F,4-CF3) = N[C@@H](CCc1ccc(C(F)(F)F)c(F)c1)C(=O)O; NMePhe(4-CF3) = CN[C@@H](Cc1ccc(C(F)(F)F)cc1)C(=O)O; Pro(trans-4-Ph) = O=C(O)[C@@H]1C[C@@H](c2ccccc2)CN1; 3Oxa8azabicyclo(3.2.1)octane = C1CC2COCC1N2*; NMePhe(4-Cl) = CN[C@@H](Cc1ccc(Cl)cc1)C(=O)O; NMePhe(4-Me) = CN[C@@H](Cc1ccc(C)cc1)C(=O)O; hPhe(4-Cl) = N[C@@H](CCc1ccc(Cl)cc1)C(=O)O; NMedβ3hAla = C[C@H](CC(=O)[*:2])N(C)[*:1]; NMeGly(cPent) = CN[C@H](C(=O)O)C1CCCC1; NMe4Pal = CN[C@@H](Cc1ccncc1)C(=O)O; NMeCha = CN[C@@H](CC1CCCCC1)C(=O)O; cisHyp = O=C(O)[C@@H]1C[C@H](O)CN1; NEtLeu = CCN[C@@H](CC(C)C)C(=O)O; NMeChg = CN[C@H](C(=O)O)C1CCCCC1; NMeI = CC[C@H](C)[C@H](NC)C(=O)O; NMeD = CN[C@@H](CC(=O)O)C(=O)O; NMeL = CN[C@@H](CC(C)C)C(=O)O; NMehSer = CN[C@@H](CCO)C(=O)O; NMeNle = CCCC[C@H](NC)C(=O)O; NMePra = C#CC[C@H](NC)C(=O)O; NMeV = CN[C@H](C(=O)O)C(C)C; Trifluoroethyl = FC(F)(F)C*; d(β3hA) = C[C@@H](N)CC(=O)O; NMeS = CN[C@@H](CO)C(=O)O; Morpholide = C1CN(*)CCO1; NMeA = CN[C@@H](C)C(=O)O; Piperidide = C1CCN(*)CC1; Pyrrolidide = C1CCN(*)C1; Ac5c = NC1(C(=O)O)CCCC1; Aze = O=C(O)[C@@H]1CCN1; Ac4c = NC1(C(=O)O)CCC1; Sar = CNCC(=O)O; Propyl = CCC*
# Tested on: Human pancreatic cancer cell line AsPC-1
# Assay: Measurement of AsPC-1 cell growth inhibition (AsPC-1 CGI)
# Type: cell-based
# Conditions: 96 h
# Method in brief: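 AsPC-1 cells in 15% FBS RPMI-1640 were exposed to test compound for 96 hours at 37° C, with CellTiter-Glo as endpoint.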
row,SMILES,IC50 [nM]
1,"CC[C@H](C)[C@@H]1NC(=O)[C@H](CC(C)C)N(C)C(=O)C[C@@H](C(=O)N2CCCCC2)N(C)C(=O)[C@H](C2CCCCC2)N(C)C(=O)C2(CCCC2)NC(=O)[C@@H]2C[C@H](O)CN2C(=O)[C@H](CCc2ccc(C(F)(F)F)c(Cl)c2)NC(=O)CN(C)C(=O)[C@H](CC2CCCCC2)N(C)C(=O)CN(C)C(=O)CN(C)C1=O [Compound 1374, (3S,9S,18S,21S,25S,28S,34S,36S)-3-[2-[3-chloro-4-(trifluoromethyl)phenyl]ethyl]-28-cyclohexyl-9-(cyclohexylmethyl)-36-hydroxy-21-isobutyl-7,10,13,16,22,26,29-heptamethyl-18-[(1S)-1-methylpropyl]-25-(piperidine-1-carbonyl)spiro[1,4,7,10,13,16,19,22,26,29,32-undecazabicyclo[32.3.0]heptatriacontane-31,1′-cyclopentane]-2,5,8,11,14,17,20,23,27,30,33-undecone] ([NMeL]I[Sar][Sar][NMeCha][Sar][hPhe(3-Cl-4-CF3)][cisHyp][Ac5c][NMeChg][NMeD]-Piperidide; lactam N-11)",50 to 100
2,CCCOC[C@H]1C(=O)N(C)CC(=O)N[C@@H](CCc2ccc(C(F)(F)F)c(Cl)c2)C(=O)N2CCC[C@H]2C(=O)NC2(CCCC2)C(=O)N(C)[C@@H](C2CCCC2)C(=O)N(C)[C@H](C(=O)N2C3CCC2COC3)CC(=O)N(CC)[C@@H](CC(C)C)C(=O)N[C@@H]([C@@H](C)CC)C(=O)N(C)[C@@H](C)C(=O)N2CC[C@H]2C(=O)N1C [Compound 1193] ([NEtLeu]I[NMeA][Aze][NMeS](Propyl)[Sar][hPhe(3-Cl-4-CF3)]P[Ac5c][NMeGly(cPent)][NMeD]-{3Oxa8azabicyclo(3.2.1)octane}; lactam N-11),20 to 50
3,"CC[C@H](C)[C@@H]1NC(=O)[C@H](CC(C)C)N(C)C(=O)C[C@@H](C(=O)N2CCCCC2)N(C)C(=O)[C@H](C2CCCC2)N(C)C(=O)C2(CCCC2)NC(=O)[C@@H]2CCCN2C(=O)[C@H](CCc2ccc(C(F)(F)F)c(F)c2)NC(=O)CN(C)C(=O)[C@H](Cc2ccc(C)cc2)N(C)C(=O)[C@@H]2CCN2C(=O)[C@H](C)N(C)C1=O [Compound 1008] ([NMeL]I[NMeA][Aze][NMePhe(4-Me)][Sar][hPhe(3-F,4-CF3)]P[Ac5c][NMeGly(cPent)][NMeD]-Piperidide; lactam N-11)",20 to 50
4,"CC[C@H](C)[C@@H]1NC(=O)[C@H](CC(C)C)N(C)C(=O)C[C@@H](C(=O)N2CCCC2)N(C)C(=O)[C@H]([C@@H](C)CC)N(C)C(=O)C2(CCCC2)NC(=O)[C@@H]2CCCN2C(=O)[C@H](CCc2ccc(C(F)(F)F)c(F)c2)NC(=O)CN(C)C(=O)[C@H](Cc2ccc(C)cc2)N(C)C(=O)[C@@H]2CCN2C(=O)[C@H](C)N(C)C1=O [Compound 44] ([NMeL]I[NMeA][Aze][NMePhe(4-Me)][Sar][hPhe(3-F,4-CF3)]P[Ac5c][NMeI][NMeD]-Pyrrolidide; lactam N-11)",20 to 50
5,C#CC[C@H]1C(=O)N[C@@H]([C@@H](C)CC)C(=O)N(C)[C@@H](C)C(=O)N2CC[C@H]2C(=O)N(C)[C@@H](CC2CCCCC2)C(=O)N(C)CC(=O)N[C@@H](CCc2ccc(C(F)(F)F)c(Cl)c2)C(=O)N2CCC[C@H]2C(=O)NC2(CCCC2)C(=O)N(C)[C@@H](C(C)C)C(=O)N(C)[C@H](C(=O)N2CCCCC2)CC(=O)N1C [Compound 559] ([NMePra]I[NMeA][Aze][NMeCha][Sar][hPhe(3-Cl-4-CF3)]P[Ac5c][NMeV][NMeD]-Piperidide; lactam N-11),100 to 500
6,CC[C@H](C)[C@@H]1NC(=O)[C@H](CC(C)C)N(C)C(=O)C[C@@H](C)NC(=O)[C@H](C(C)C)N(C)C(=O)C2(CCCC2)NC(=O)[C@@H]2CCCN2C(=O)[C@H](CCc2ccc(C(F)(F)F)c(Cl)c2)NC(=O)CN(C)C(=O)[C@H](CC2CCCCC2)N(C)C(=O)[C@@H]2CCN2C(=O)[C@H](C)N(C)C1=O [Compound 488] (cyclo([Ac5c][NMeV][d(β3hA)][NMeL]I[NMeA][Aze][NMeCha][Sar][hPhe(3-Cl-4-CF3)]P)),100 to 500
7,CCCC[C@H]1C(=O)N[C@@H]([C@@H](C)CC)C(=O)N(C)[C@@H](C)C(=O)N2CC[C@H]2C(=O)N(C)[C@@H](CC2CCCCC2)C(=O)N(C)CC(=O)N[C@@H](CCc2ccc(C(F)(F)F)c(Cl)c2)C(=O)N2CCC[C@H]2C(=O)NC2(CCCC2)C(=O)N(C)[C@@H](C(C)C)C(=O)N(C)[C@H](C(=O)N2CCCCC2)CC(=O)N1C [Compound 1616] ([NMeNle]I[NMeA][Aze][NMeCha][Sar][hPhe(3-Cl-4-CF3)]P[Ac5c][NMeV][NMeD]-Piperidide; lactam N-11),100 to 500
8,CC[C@H](C)[C@@H]1NC(=O)[C@H](C(C)C)N(C)C(=O)C[C@@H](C)NC(=O)[C@H](CC(C)C)N(C)C(=O)C2(CCCC2)NC(=O)[C@H](CC(C)C)N(C)C(=O)[C@H](CCc2ccc(C(F)(F)F)c(Cl)c2)NC(=O)CN(C)C(=O)[C@H](Cc2ccc(Cl)cc2)N(C)C(=O)CN(C)C(=O)CN(C)C1=O [Compound 1014] (cyclo([Ac5c][NMeL][d(β3hA)][NMeV]I[Sar][Sar][NMePhe(4-Cl)][Sar][hPhe(3-Cl-4-CF3)][NMeL])),100 to 500
9,CC[C@H](C)[C@@H]1NC(=O)[C@H](COCC(F)(F)F)N(C)C(=O)C[C@@H](C(=O)N2CCCCC2)N(C)C(=O)[C@H](C(C)C)N(C)C(=O)C2(CCCC2)NC(=O)[C@@H]2CCCN2C(=O)[C@H](CCc2ccc(C(F)(F)F)c(Cl)c2)NC(=O)CN(C)C(=O)[C@H](CC2CCCCC2)N(C)C(=O)[C@@H]2CCN2C(=O)[C@H](C)N(C)C1=O [Compound 387] ([NMeS](Trifluoroethyl)I[NMeA][Aze][NMeCha][Sar][hPhe(3-Cl-4-CF3)]P[Ac5c][NMeV][NMeD]-Piperidide; lactam N-11),100 to 500
10,CC[C@H](C)[C@@H]1NC(=O)[C@H](CC(C)C)N(C)C(=O)C[C@@H](C(=O)N2CCCCC2)N(C)C(=O)[C@H](C2CCCCC2)N(C)C(=O)C2(CCCC2)NC(=O)[C@H](Cc2ccncc2)N(C)C(=O)[C@H](CCc2ccc(C(F)(F)F)c(Cl)c2)NC(=O)CN(C)C(=O)[C@H](CC2CCCCC2)N(C)C(=O)CN(C)C(=O)CN(C)C1=O [Compound 36] ([NMeL]I[Sar][Sar][NMeCha][Sar][hPhe(3-Cl-4-CF3)][NMe4Pal][Ac5c][NMeChg][NMeD]-Piperidide; lactam N-11),100 to 500
11,CC[C@H](C)[C@@H]1NC(=O)[C@H](CC(C)C)N(C)C(=O)C[C@@H](C(=O)N2CCCCC2)N(C)C(=O)[C@H](C2CCCCC2)N(C)C(=O)C2(CCCC2)NC(=O)[C@@H]2C[C@@H](c3ccccc3)CN2C(=O)[C@H](CCc2ccc(C(F)(F)F)c(Cl)c2)NC(=O)CN(C)C(=O)[C@H](CC2CCCCC2)N(C)C(=O)CN(C)C(=O)CN(C)C1=O [Compound 90] ([NMeL]I[Sar][Sar][NMeCha][Sar][hPhe(3-Cl-4-CF3)][Pro(trans-4-Ph)][Ac5c][NMeChg][NMeD]-Piperidide; lactam N-11),100 to 500
12,"CC[C@H](C)[C@@H]1NC(=O)[C@H](CC(C)C)N(C)C(=O)C[C@@H](C)N(C)C(=O)[C@H]([C@@H](C)CC)N(C)C(=O)C2(CCCC2)NC(=O)[C@@H]2CCCN2C(=O)[C@H](CCc2ccc(C(F)(F)F)c(F)c2)NC(=O)CN(C)C(=O)[C@H](CC2CCCCC2)N(C)C(=O)[C@@H]2CCN2C(=O)[C@H](C)N(C)C1=O [Compound 859] (cyclo([Ac5c][NMeI][NMedβ3hAla][NMeL]I[NMeA][Aze][NMeCha][Sar][hPhe(3-F,4-CF3)]P))",50 to 100
13,CC[C@H](C)[C@@H]1NC(=O)[C@H](CC(C)C)N(CC)C(=O)C[C@@H](C(=O)N2CCOCC2)N(C)C(=O)[C@H](C2CCCC2)N(C)C(=O)C2(CCCC2)NC(=O)[C@@H]2CCCN2C(=O)[C@H](CCc2ccc(C(F)(F)F)c(Cl)c2)NC(=O)CN(C)C(=O)[C@H](C2CCCC2)N(C)C(=O)[C@@H]2CCN2C(=O)[C@H](C)NC1=O [Compound 1140] ([NEtLeu]IA[Aze][NMeGly(cPent)][Sar][hPhe(3-Cl-4-CF3)]P[Ac5c][NMeGly(cPent)][NMeD]-Morpholide; lactam N-11),100 to 500
14,CC[C@H](C)[C@@H]1NC(=O)[C@H](C)N(C)C(=O)C[C@@H](C)NC(=O)[C@H](C2CCCC2)N(C)C(=O)C2(CCC2)NC(=O)[C@@H]2CCCN2C(=O)[C@H](CCc2ccc(C(F)(F)F)c(Cl)c2)NC(=O)CN(C)C(=O)[C@H](Cc2ccc(C(F)(F)F)cc2)N(C)C(=O)CN(C)C(=O)CN(C)C1=O [Compound 1486] (cyclo([Ac4c][NMeGly(cPent)][d(β3hA)][NMeA]I[Sar][Sar][NMePhe(4-CF3)][Sar][hPhe(3-Cl-4-CF3)]P)),100 to 500
15,"CC[C@H](C)[C@@H]1NC(=O)[C@H](CC(C)C)N(C)C(=O)C[C@@H](C(=O)N2CCCCC2)N(C)C(=O)[C@H](C(C)C)N(C)C(=O)C2(CCCC2)NC(=O)[C@@H]2CCCN2C(=O)[C@H](CCc2ccc(C(F)(F)F)c(F)c2)NC(=O)CN(C)C(=O)[C@H](CC2CCCCC2)N(C)C(=O)[C@@H]2CCN2C(=O)[C@H](C)N(C)C1=O [Compound 1040] ([NMeL]I[NMeA][Aze][NMeCha][Sar][hPhe(3-F,4-CF3)]P[Ac5c][NMeV][NMeD]-Piperidide; lactam N-11)",100 to 500
16,CC[C@H](C)[C@@H]1NC(=O)[C@H](CC(C)C)N(C)C(=O)C[C@@H](C(=O)N2CCCCC2)N(C)C(=O)[C@H](C(C)C)N(C)C(=O)C2(CCCC2)NC(=O)[C@@H]2CCCN2C(=O)[C@H](CCc2ccc(Cl)cc2)NC(=O)CN(C)C(=O)[C@H](CC2CCCCC2)N(C)C(=O)[C@@H]2CCN2C(=O)CN(C)C1=O [Compound 916] ([NMeL]I[Sar][Aze][NMeCha][Sar][hPhe(4-Cl)]P[Ac5c][NMeV][NMeD]-Piperidide; lactam N-11),100 to 500
17,CC[C@H](C)[C@@H]1NC(=O)[C@H](CCOC)N(C)C(=O)C[C@@H](C(=O)N2CCCCC2)N(C)C(=O)[C@H](C(C)C)N(C)C(=O)C2(CCCC2)NC(=O)[C@@H]2CCCN2C(=O)[C@H](CCc2ccc(C(F)(F)F)c(Cl)c2)NC(=O)CN(C)C(=O)[C@H](CC2CCCCC2)N(C)C(=O)[C@@H]2CCN2C(=O)[C@H](C)N(C)C1=O [Compound 397] ([NMehSer](Me)I[NMeA][Aze][NMeCha][Sar][hPhe(3-Cl-4-CF3)]P[Ac5c][NMeV][NMeD]-Piperidide; lactam N-11),100 to 500
